These results are taken from patent US8415469B2, “Compounds and methods for kinase modulation, and indications therefor” (Plexxikon Inc., priority 2005, dated 2013).

What all share (format): biochemical
In test [1] the target is T1, Zap70 (Homo sapiens, UniProt P43403).
T1 construct: P1868.pFastBac1 ZAP70 D327-G606 HIS, WT; His7 (HHHHHHH) (C); made in house
T1 sequence (P43403 with tags, fused parts or gaps): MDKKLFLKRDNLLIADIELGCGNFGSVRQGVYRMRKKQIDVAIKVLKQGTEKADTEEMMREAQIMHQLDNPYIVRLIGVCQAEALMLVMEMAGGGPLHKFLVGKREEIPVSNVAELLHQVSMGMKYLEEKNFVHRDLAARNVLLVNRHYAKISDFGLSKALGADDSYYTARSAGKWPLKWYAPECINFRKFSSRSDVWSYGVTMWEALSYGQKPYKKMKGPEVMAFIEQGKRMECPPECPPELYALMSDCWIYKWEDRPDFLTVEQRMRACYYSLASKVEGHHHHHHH
Briefly: AlphaScreen kinase assay, Zap70. To be noted: read-out: IC50, activity toward kinase Zap70. The gist of the method:
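Kinase activity was measured as phosphorylation of a biotinylated peptide, detected with streptavidin donor and phospho-antibody acceptor beads. Compounds, from 20 mM DMSO stocks, were tested at eight concentrations in 1:3 serial dilution.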
Background: In Alpha technology, singlet oxygen from a donor bead excites a nearby acceptor bead.

Test [2] concerns the target IGF1R (Homo sapiens, UniProt P08069). Briefly: AlphaScreen kinase assay, IGF1R. The note with it: read-out: IC50, activity toward kinase IGF1R.
The target of test [3] is PDGFRA (Homo sapiens, UniProt P16234). Briefly: AlphaScreen kinase assay, PDGFRA. The note with it: read-out: IC50, activity toward kinase PDGFRA. From the text:
AlphaScreen assay was used to screen additional kinases. The assay is similarly dependent on the phosphorylation of a peptide substrate. In this assay, an antibody that recognizes phosphorylated substrate is bound to an acceptor bead. The peptide substrate is attached to biotin, which binds to a donor head that contains streptavidin. Thus phosphorylated substrate is bound by antibody and streptavidin, bringing the donor and acceptor heads into close proximity when kinase is not inhibited. The donor produces singlet oxygen which results in emission from the acceptor when they are in close proximity. Conversely, when kinase is inhibited, the donor and acceptor beads are not associated and the emission from the acceptor is reduced.
AlphaScreen assays were done using compounds dissolved in DMSO to a concentration of 20 mM. The compounds were diluted accordingly to the desired final concentrations in each sample well, using 1:3 serial dilution for a total of 8 concentration points.

Test [4] addresses T2, Flt3 (Homo sapiens, UniProt P36888).
T2 construct: purchased Invitrogen (assay run by Invitrogen)
T2 sequence (P36888 27-993): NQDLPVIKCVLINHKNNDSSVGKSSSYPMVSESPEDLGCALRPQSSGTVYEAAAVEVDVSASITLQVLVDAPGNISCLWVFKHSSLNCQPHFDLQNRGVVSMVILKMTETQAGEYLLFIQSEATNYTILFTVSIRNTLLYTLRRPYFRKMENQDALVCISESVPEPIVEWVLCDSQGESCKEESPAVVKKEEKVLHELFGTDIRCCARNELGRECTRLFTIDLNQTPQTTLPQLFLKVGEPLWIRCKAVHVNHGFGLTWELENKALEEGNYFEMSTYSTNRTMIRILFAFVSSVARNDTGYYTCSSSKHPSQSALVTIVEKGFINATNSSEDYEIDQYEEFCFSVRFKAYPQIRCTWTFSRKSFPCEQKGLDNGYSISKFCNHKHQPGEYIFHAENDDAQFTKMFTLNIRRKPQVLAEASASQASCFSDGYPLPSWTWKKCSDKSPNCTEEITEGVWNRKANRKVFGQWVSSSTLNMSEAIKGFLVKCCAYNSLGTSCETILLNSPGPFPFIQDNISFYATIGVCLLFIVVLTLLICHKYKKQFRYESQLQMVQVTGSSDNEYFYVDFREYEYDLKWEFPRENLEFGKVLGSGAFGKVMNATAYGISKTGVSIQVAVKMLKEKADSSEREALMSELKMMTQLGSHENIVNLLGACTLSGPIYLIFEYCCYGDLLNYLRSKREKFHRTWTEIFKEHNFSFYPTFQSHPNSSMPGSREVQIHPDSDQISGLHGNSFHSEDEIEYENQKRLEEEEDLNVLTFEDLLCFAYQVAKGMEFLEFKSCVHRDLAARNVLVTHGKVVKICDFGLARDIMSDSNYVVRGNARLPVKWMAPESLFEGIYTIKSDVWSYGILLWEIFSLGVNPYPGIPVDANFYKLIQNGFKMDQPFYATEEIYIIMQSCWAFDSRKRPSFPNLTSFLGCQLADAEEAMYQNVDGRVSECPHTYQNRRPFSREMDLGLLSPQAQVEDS
Briefly: Z'-Lyte FRET kinase assay (Invitrogen), Flt3. The note with it: read-out: IC50, activity toward kinase Flt3. From the text: The effect of potential modulators of kinase activity can be measured in a variety of different assays known in the art. For example, direct radiometric, indirect FRET or AlphaScreen assays may be used to assess the level of phosphorylation of a substrate in the presence of test compounds in order to determine the inhibitory affect of the compound on the kinase. Invitrogen (Carlsbad, Calif.) uses a FRET based assay for Btk, EGFR, EphB2, Flt3, lrak4, Kdr, MAP2K1, MAPKAPK2, PDGFRB, PKC theta, Stk6 and Yes. For these assays, compounds of the invention were screened by Invitrogen using Z′-Lyte™ kinase assay.
Briefly, the Invitrogen kinase assay involves use of a specific peptide substrate optimized for each kinase, containing a fluorophore at each end that make up the FRET pair. The peptide sensitivity to proteolytic cleavage depends on phosphorylation of the peptide. Non-phosphorylated peptide is cleaved by a protease while peptide phosphorylated by the kinase is not cleaved. Cleavage of the peptide disrupts the FRET between the donor (coumarin) and acceptor (fluorescein) fluorophores, resulting in an increase in the ratio of donor emission to acceptor emission. The emission ratio of coumarin to fluorescein is used to assess the reaction progress. The extent of phosphorylation is determined from the emission ratio, which is low when the kinase is active (phosphorylated peptide is not cleaved, FRET pair connected) or higher for inhibited kinase (non-phosphorylated peptide is cleaved, FRET pair separated). Thus, the assay involves a kinase reaction in the presence of varying concentrations of a given compound, a development reaction with site specific protease, and detection of the fluorescent emission ratio of coumarin and fluorscein. […] Reaction conditions for each kinase are determined to provide optimal reaction times, incubation temperature, kinase and ATP concentrations. Test samples are made up in 1× kinase buffer (50 mM HEPES pH 7.5, 50 mM MgCl2, 5 mM EGTA, 0.05% BRIJ-35) and compound at desired concentration prepared in DMSO such that the final DMSO is 1%. […] Typically, assay plates are prepared to 10 μl final volume per sample, adding 2.5 μl of compound at 4× the desired concentration in 4% DMSO (serial dilution of compound provides concentration curve), 5 μl of the desired kinase mixed with Z′-LYTE™ peptide substrate (2× in 2× kinase buffer, final peptide at 2 μM), and 2.5 μl of 4×ATP solution. All kinase except for MAP2K1 were at 10 μM ATP in the kinase reaction, while MAP2K1 was at 100 μM. Samples are mixed and the kinase reaction is incubated 1 hour at room temperature, after which 5 μl of development solution is added and mixed. After incubation for another 1 hour at room temperature, 5 μl of stop reagent is added to each sample and mixed. The fluorescence signals are measured to determine the emission ratio.

IGF1R, sequence (P08069 31-1367): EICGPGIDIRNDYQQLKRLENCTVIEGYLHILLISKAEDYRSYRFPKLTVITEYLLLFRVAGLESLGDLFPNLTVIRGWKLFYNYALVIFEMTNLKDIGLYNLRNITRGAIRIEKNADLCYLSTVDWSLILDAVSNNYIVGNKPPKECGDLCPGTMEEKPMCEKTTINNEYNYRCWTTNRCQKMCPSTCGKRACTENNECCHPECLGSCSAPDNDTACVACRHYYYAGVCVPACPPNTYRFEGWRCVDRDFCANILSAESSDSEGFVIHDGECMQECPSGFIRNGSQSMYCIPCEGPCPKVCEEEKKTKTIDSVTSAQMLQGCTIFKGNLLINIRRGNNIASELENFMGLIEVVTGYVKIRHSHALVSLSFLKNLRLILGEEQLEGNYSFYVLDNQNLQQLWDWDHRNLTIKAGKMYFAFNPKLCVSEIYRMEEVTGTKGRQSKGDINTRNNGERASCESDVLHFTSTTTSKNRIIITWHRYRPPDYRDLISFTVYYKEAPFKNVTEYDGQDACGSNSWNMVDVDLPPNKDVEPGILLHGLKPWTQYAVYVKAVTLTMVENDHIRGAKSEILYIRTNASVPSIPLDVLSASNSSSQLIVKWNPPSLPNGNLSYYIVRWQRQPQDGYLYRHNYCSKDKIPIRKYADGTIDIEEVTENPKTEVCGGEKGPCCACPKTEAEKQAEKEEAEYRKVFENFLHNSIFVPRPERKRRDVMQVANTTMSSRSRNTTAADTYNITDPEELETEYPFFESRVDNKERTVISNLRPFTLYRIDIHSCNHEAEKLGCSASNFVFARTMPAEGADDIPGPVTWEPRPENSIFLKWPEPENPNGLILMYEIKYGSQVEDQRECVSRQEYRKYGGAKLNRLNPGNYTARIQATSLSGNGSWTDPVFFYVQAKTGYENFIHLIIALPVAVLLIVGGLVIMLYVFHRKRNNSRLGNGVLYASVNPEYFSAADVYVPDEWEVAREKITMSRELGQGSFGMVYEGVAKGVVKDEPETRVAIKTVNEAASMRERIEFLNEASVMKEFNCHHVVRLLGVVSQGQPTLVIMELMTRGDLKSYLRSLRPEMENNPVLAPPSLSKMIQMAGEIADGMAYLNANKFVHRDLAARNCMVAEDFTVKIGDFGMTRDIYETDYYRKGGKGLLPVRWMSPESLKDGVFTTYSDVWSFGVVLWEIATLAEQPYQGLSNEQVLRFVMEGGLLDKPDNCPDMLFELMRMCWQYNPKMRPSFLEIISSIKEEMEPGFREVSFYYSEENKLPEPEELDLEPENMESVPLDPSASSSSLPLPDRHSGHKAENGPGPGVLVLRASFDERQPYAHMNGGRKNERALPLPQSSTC
PDGFRA, sequence (P16234 24-1089): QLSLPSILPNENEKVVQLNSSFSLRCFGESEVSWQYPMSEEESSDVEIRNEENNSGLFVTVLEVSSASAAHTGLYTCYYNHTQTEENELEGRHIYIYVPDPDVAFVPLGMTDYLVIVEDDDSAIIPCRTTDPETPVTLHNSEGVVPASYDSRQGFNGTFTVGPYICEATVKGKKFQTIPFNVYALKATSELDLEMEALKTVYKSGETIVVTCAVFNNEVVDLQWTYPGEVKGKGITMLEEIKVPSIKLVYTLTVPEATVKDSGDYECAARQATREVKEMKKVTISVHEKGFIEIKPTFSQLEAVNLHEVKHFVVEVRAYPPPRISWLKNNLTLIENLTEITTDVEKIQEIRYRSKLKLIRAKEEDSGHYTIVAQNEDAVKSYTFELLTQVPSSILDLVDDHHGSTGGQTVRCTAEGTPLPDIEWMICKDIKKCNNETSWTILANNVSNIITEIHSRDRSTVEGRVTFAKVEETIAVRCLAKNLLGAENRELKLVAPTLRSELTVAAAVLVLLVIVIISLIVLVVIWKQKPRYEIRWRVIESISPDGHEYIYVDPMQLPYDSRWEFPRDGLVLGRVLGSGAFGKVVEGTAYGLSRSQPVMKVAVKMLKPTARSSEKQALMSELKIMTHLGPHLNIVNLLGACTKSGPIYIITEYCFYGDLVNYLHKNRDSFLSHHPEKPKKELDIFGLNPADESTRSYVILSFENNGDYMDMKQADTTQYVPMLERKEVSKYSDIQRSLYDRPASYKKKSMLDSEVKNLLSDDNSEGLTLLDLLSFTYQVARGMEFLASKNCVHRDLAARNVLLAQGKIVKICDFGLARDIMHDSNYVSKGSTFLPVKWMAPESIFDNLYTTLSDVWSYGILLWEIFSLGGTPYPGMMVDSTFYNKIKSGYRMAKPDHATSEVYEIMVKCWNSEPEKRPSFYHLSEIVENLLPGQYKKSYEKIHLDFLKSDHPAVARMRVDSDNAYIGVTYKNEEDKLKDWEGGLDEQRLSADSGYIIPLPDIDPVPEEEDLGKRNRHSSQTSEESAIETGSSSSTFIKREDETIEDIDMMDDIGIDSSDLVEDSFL

What is called IC50 is the concentration needed to halve the response being measured. For the molecule `CC(=O)Nc1cccc(-c2cnc3[nH]cc(C(=O)c4cc(O)ccc4F)c3c2)c1` [Compound P-0001], the IC50 in test [1] is no more than 10 µM. In the case of `Nc1cccc(-c2cnc3[nH]cc(C(=O)c4cc(O)ccc4F)c3c2)c1` [Compound P-0002], in test [2], the IC50 was no more than 10 µM. As to `Nc1cccc(-c2cnc3[nH]cc(C(=O)c4cccc(O)c4)c3c2)c1` [Compound P-0003], the IC50 in test [2] is no more than 10 µM. For `Nc1cccc(-c2cnc3[nH]cc(C(=O)c4cccc(O)c4F)c3c2)c1` [Compound P-0004, [5-(3-amino-phenyl)-1H-pyrrolo[2,3-b]pyridin-3-yl]-(2-fluoro-3-hydroxy-phenyl)methanone], the IC50 in test [2] and in test [1] was no more than 10 µM throughout.

As for `CCCS(=O)(=O)Nc1ccc(F)c(C(=O)c2c[nH]c3ncccc23)c1F` [Compound P-0007, Propane-1-sulfonic acid [2,4-difluoro-3-(1H-pyrrolo[2,3-b]pyridine-3-carbonyl)-phenyl]-amide], the IC50 in test [3] was no more than 10 µM. As for `Oc1ccc(F)c(C(O)c2c[nH]c3ncc(-c4cccnc4)cc23)c1F` (centres unmarked) [Compound P-0009, 2,4-difluoro-3-[hydroxy-(5-pyridin-3-yl-1H-pyrrolo[2,3-b]pyridin-3-yl)-methyl]-phenol], in test [2], the IC50 was no more than 10 µM.

With `COc1ccc(C(=O)c2c[nH]c3ncc(-c4cccc(/C=C/C(=O)O)c4)cc23)c(Cl)c1` [Compound P-0015], the IC50 in test [1] was no more than 10 µM. Consider `O=C(c1cc(O)ccc1F)c1c[nH]c2ncc(-c3cccs3)cc12` [Compound P-0032], for which the IC50 in test [1] was no more than 10 µM.

For the molecule `O=C(O)/C=C/c1cccc(-c2cnc3[nH]cc(C(=O)c4ccccc4F)c3c2)c1` [Compound P-0033], in test [1], the IC50 is no more than 10 µM. With `NC(=O)c1cccc(-c2cnc3[nH]cc(C(=O)c4cccc(O)c4F)c3c2)c1` [Compound P-0034, 3-[3-(2-Fluoro-3-hydroxy-benzoyl)-1H-pyrrolo[2,3-b]pyridin-5-yl]benzamide], the IC50 in test [1] is no more than 10 µM. For `CC(=O)Nc1cccc(-c2cnc3[nH]cc(C(=O)c4cccc(O)c4F)c3c2)c1` [Compound P-0035, N-{3-[3-(2-Fluoro-3-hydroxy-benzoyl)-1H-pyrrolo[2,3-b]pyridin-5-yl]-phenyl}-acetamide], in test [1], the half-maximal inhibitory concentration (IC50) is no more than 10 µM. In the case of `CS(=O)(=O)Nc1cccc(-c2cnc3[nH]cc(C(=O)c4cccc(O)c4F)c3c2)c1` [Compound P-0038, N-{3-[3-(2-Fluoro-3-hydroxy-benzoyl)-1H-pyrrolo[2,3-b]pyridin-5-yl]-phenyl}-methanesulfonamide], the IC50 in test [1] is no more than 10 µM. `Cc1ccc(F)cc1C(=O)c1c[nH]c2ncc(-c3cccc(N)c3)cc12` [Compound P-0040]: in test [1], the IC50 was no more than 10 µM. For `Cn1cc(C(F)(F)F)c(-c2ccc(S(=O)(=O)NCc3c[nH]c4ncccc34)s2)n1` [Compound P-0041], the IC50 in test [1] was no more than 10 µM. The same measure, in the same setting: next, `Cc1ccc(S(=O)(=O)NCc2c[nH]c3ncccc23)cc1` [Compound P-0058]: no more than 10 µM. For `CCCS(=O)(=O)Nc1ccc(F)c(C(=O)c2c[nH]c3ncc(-c4cccnc4)cc23)c1F` [Compound P-0088, Propane-1-sulfonic acid [2,4-difluoro-3-(5-pyridin-3-yl-1H-pyrrolo[2,3-b]pyridine-3-carbonyl)-phenyl]-amide], the concentration for half-maximal inhibition (IC50) in test [4] was no more than 10 µM. As for `O=C(Nc1ccc(Cc2c[nH]c3ncccc23)cc1)Nc1cccc(C(F)(F)F)c1` [Compound P-0262, 1-[4-(1H-Pyrrolo[2,3-b]pyridin-3-ylmethyl)-phenyl]-3-(3-trifluoromethyl-phenyl)-urea], in test [4], the IC50 was no more than 10 µM. As to `CCCS(=O)(=O)Nc1ccc(F)c(C(=O)c2c[nH]c3ncc(-c4ccccc4)cc23)c1F` [Compound P-0636, Propane-1-sulfonic acid [2,4-difluoro-3-(5-phenyl-1H-pyrrolo[2,3-b]pyridine-3-carbonyl)-phenyl]-amide], the IC50 in test [4] is no more than 10 µM.

Consider `CCCS(=O)(=O)Nc1ccc(F)c(C(=O)c2c[nH]c3ncc(OC)cc23)c1F` [Compound P-0806, Propane-1-sulfonic acid [2,4-difluoro-3-(5-methoxy-1H-pyrrolo[2,3-b]pyridine-3-carbonyl)-phenyl]-amide], for which the IC50 in test [4] and in test [3] was no more than 10 µM in each case. With `CCCC(=O)Nc1ccc(F)c(Cc2c[nH]c3ncc(-c4cccnc4)cc23)c1F` [Compound P-1280], the IC50 in test [4] and in test [3] was no more than 10 µM in each case. Regarding `CCCCNC(=O)Nc1ccc(F)c(C(=O)c2c[nH]c3ncc(-c4cccnc4)cc23)c1F` [Compound P-1318, 1-Butyl-3-[2,4-difluoro-3-(5-pyridin-3-yl-1H-pyrrolo[2,3-b]pyridine-3-carbonyl)-phenyl]-urea], the IC50 in test [4] is no more than 10 µM.

For `COc1cccc(C(=O)c2c[nH]c3ncc(-c4cccc(NC(C)=O)c4)cc23)c1F` [Compound P-1336, N-{3-[3-(2-Fluoro-3-methoxy-benzoyl)-1H-pyrrolo[2,3-b]pyridin-5-yl]-phenyl}-acetamide], the IC50 in test [2], in test [4] and in test [3] was no more than 10 µM each time. Take `COc1cc(OC)cc(C(=O)c2c[nH]c3ncc(-c4cccc(NS(C)(=O)=O)c4)cc23)c1` [Compound P-1426, N-{3-[3-(3,5-Dimethoxy-benzoyl)-1H-pyrrolo[2,3-b]pyridin-5-yl]-phenyl}-methanesulfonamide]: the IC50 in test [4] and in test [3] was no more than 10 µM throughout.
